Data taken from paper PMC7714071, “Interaction of amyloid beta with humanin and acetylcholinesterase is modulated by ATP” (FEBS Open Bio, 2020).

Key:
A549 cells = experiment: MTT cell viability, A549; type: cell-based, human; conditions: 48 h, Fig. 7A; for effect of ATP on viability in HN-ID media: HN-immunodepleted media, versus no ATP; for effect on cell viability: control media, three experiments in triplicate
Procedure: (§1) Human NSCLC cell lines, A549 (ATCC CCL‐185) and H1299 (ATCC CRL‐5803), were purchased from the American Type Culture Collection (ATCC, Manassas, VA, USA). Cells were seeded as we reported earlier in 5 mL HyClone Dulbecco's modified Eagle's medium/nutrient mixture F‐12 (DMEM/F12) (GE Healthcare Life Sciences, Pittsburgh, PA, USA), supplemented with 10% Fetalgro bovine growth serum (FBS; RMBIO, Missoula, MT, USA), 50 U·mL^−1 penicillin, and […] streptomycin (Invitrogen, Life Technologies, Carlsbad, CA, USA) in 25‐cm^2 tissue culture flasks, and allowed to grow overnight in an incubator at 37 °C, 95% humidity, and 5% CO2. The cells were counted after trypan blue staining, with a hemocytometer.
(§2) The 3‐(4,5‐dimethylthiazol‐2‐yl)‐2,5‐diphenyl‐tetrazolium bromide (MTT) reduction assay (Sigma‐Aldrich), used to measure cell viability, was carried out as we reported earlier. Cells were seeded in 96‐well plates as indicated in 200 μL 10% FBS‐supplemented media per well and maintained overnight at 95% humidity and 5% CO2. After an overnight incubation, the media were replaced with 200 μL serum‐free media, and the cells were further incubated, without or with different treatments, for 24, 48, or 72 h. The final concentration of DMSO in each well never exceeded 0.1%. The cells were then incubated for 4 h with MTT (0.5 mg·mL^−1) in the dark. The media were carefully removed, and DMSO (100 μL) was added to dissolve the formazan crystals. The absorbance was measured at 570 nm in a plate reader. Untreated cells or wells containing only DMSO and media were used as a positive and negative control, respectively. Statistical analysis was conducted using […] PRISM version 8.4.3 for Windows. Significant values were considered at P < 0.05 and more significant values at P < 0.01, compared with the control.
(§3) Conditioned media were immunodepleted (ID) according to the methods previously described and our recently published report. Briefly, specific antibodies were bound to ELISA wells overnight (1 : 1000 dilution). The wells were then blocked and washed, then 300 μL of the conditioned medium (0.5 μg·μL^−1) treated as indicated, 72 h postserum starvation, was incubated with the antibodies bound to ELISA wells for 24 h. The ID media were then carefully removed and analyzed for the presence of the target protein or peptide by ELISA. The same amount of protein (3 µL of 600 µg·mL^−1 total protein) of each sample was analyzed in the experiments. Significant depletion (95–100%) was observed upon using each of the antibodies employed in this study.
(§4) Since addition of ATP appears to increase binding of HN to Aβ, and conversely, decreases the interaction of Aβ with AChE (Figs 3, 4, 5, 6), we tested the effect of added ATP on A549 and H1299 cell viability (Fig. 7). Exogenously added ATP at either 100 µM or 1 mM had no effect on viability of either A549 (Fig. 7A) or H1299 cells (Fig. 7B). […] To determine the effect of ID of AChE or HN in the absence or presence of added ATP on cell viability, ID media were prepared by first seeding 0.2 × 10^5 cells per well in 96‐well plates in 10% FBS‐supplemented media. The next day, the cells were incubated in serum‐free medium for 72 h, then ID of AChE or HN as described in Materials and methods. For cell viability assays, cells were seeded in 96‐well plates at 0.2 × 10^5 cells per well in 200 µL 10% FBS‐supplemented media followed by incubation in serum‐free medium for 12 h, then treated with the ID media for 48 h. […]

H1299 cells = experiment: MTT cell viability, H1299; type: cell-based, human; conditions: 48 h, Fig. 7B; for effect of ATP on viability in HN-ID media: HN-immunodepleted media, versus no ATP; for effect on cell viability: control media, three experiments in triplicate
Procedure: as §1, §2, §3, §4

Aβ cytotoxicity = conditions: cited from earlier work
Text: Almost all types of cells produce amyloid beta (Aβ), a peptide well recognized for its role in the development and progression of different stages of Alzheimer's disease (AD). The Aβ peptide is ~ 4 kDa and derived from the sequential processing of the higher molecular weight amyloid precursor protein by two membrane‐bound endoproteases, β‐ and γ‐secretase. Different C‐terminal Aβ heterogeneity results from processing by γ‐secretase, where Aβ40 represents the most abundant isoform (~ 90%) as compared to Aβ42 (~ 10%). Self‐assembled Aβ40/42 peptides into amyloid fib ... || Soluble oligomers of proteins implicated in different diseases are primarily thought to be the main toxic form as opposed to the larger fibrillar assemblies. Aβ regions containing Tyr and Ser (H6DSGY10 and G25SNKG29) (Fig. 1) along with post‐translational modifications of these regions, have been implicated in misfolding, oligomerization, or fibril formation of Aβ [5, 10, 11, 16, 41]. […] Aβ proteins a ... || Acetylcholinesterase (AChE) is an enzyme known for its role in terminating acetylcholine‐mediated neurotransmission at the synaptic cleft. The majority of the cortical AChE in the Alzheimer's brain is mainly associated with the amyloid core of senile plaques. […]

Aβ40 = conditions: HN and AChE compared; cited from earlier work
Text: Amino acid residues involved in direct interactions between HN and Aβ40 were identified previously by molecular modeling. The specific epitopes at the binding interface between HN and Aβ40 were identified, by proteolytic epitope excision and extraction in addition to affinity–mass spectrometric data analysis, to be HN (5–15) and Aβ (17–28). […] Inhibiting the 17–28 region of Aβ reduced aggregation of the neurotoxic amyloid fibrils and related cytotoxicity in SH‐SY5Y, a human neuroblastoma cell ... || Humanin has been previously reported to bind amino acid residues 17–28 of Aβ (Fig. 1). AChE is also known to bind Aβ (1–16) and the Aβ (12–28) region (Fig. 1). Since the binding sites of AChE and HN on Aβ are overlapping, we previously investigated whether HN and AChE can simultaneously bind Aβ [79].

Nc1ncnc2c1ncn2[C@@H]1O[C@H](COP(=O)(O)OP(=O)(O)OP(=O)(O)O)[C@@H](O)[C@H]1O [ATP, Adenosine triphosphate]
effect of ATP on viability in AChE-depleted media (A549 cells; AChE-immunodepleted media): did not affect cell viability | effect of ATP on viability in HN-ID media (A549 cells; ATP 100 µM): No change in cell viability | effect on cell viability (A549 cells; ATP 100 µM): no effect | effect of ATP on viability in HN-ID media (A549 cells; ATP 1 mM): No change in cell viability | effect on cell viability (A549 cells; ATP 1 mM): no effect | effect of ATP on viability in AChE-depleted media (H1299 cells; AChE-immunodepleted media): did not affect cell viability | effect of ATP on viability in HN-ID media (H1299 cells; ATP 100 µM): No change in cell viability | effect on cell viability (H1299 cells; ATP 100 µM): no effect | effect of ATP on viability in HN-ID media (H1299 cells; ATP 1 mM): No change in cell viability | effect on cell viability (H1299 cells; ATP 1 mM): no effect | effect on Aβ-mediated cytotoxicity (Aβ cytotoxicity): protective

Humanin [HN]
affinity for Aβ40 (Aβ40): comparable affinities
